The test system of data set [1] is human placenta. On the procedure: The study was approved by the regional Ethics Committee (KF 01-145/03 + KF(11) 260063) and the Data Protection Agency. All mothers gave informed written consent. […] The placentas were injected with a Krebs Ringer buffer containing heparin (5000 IU/ml, 5 ml/l medium) to prevent any remaining blood in fetal vessels from coagulating. The perfusions were performed in a dual perfusion system as previously described. […] Next, the lobule containing the perfused cotyledon was cut from the placenta (9 cm diameter) and placed in the perfusion chamber. The maternal circulation was connected by blunt cannulation of the intervillous space surrounding the perfused cotyledon. The perfusion media (100 mL each in fetal and maternal reservoirs) were circulated by peristaltic pumps and consisted of Krebs Ringer Buffer containing heparin (5000 IU/mL, Copenhagen University Hospital Pharmacy, 5 mL/L medium), glucose (0.6 g/100 mL), Pen-Strep (1% Substrate department standard solution, Panum Institute Copenhagen) and physiological levels of Human Serum Albumin (20% solution, CSL Behring Gmbh, dialysed in Krebs Ringer Buffer, maternal reservoir: 30 g/L; fetal reservoir: 40 g/L) and gassed with 95% O2/5% CO2 and 95% N2/5% CO2 in the maternal and fetal reservoirs, respectively. […] After at least 30 minutes of pre-perfusion to stabilise temperature and oxygen content, BDE-47, BDE-99 and BDE-209 (Cambridge Isotopes Laboratories, 1 μg/mL in ethanol, 100 μL added; final concentration of 1 ng/mL) and the positive control substance antipyrine dissolved in H2O (Aldrich-Chemie, Germany; final concentration of 100 μg/mL) were added to the maternal reservoir. The applied concentrations of PBDEs were a compromise between achieving final levels relatively close to in vivo levels and having a detection frequency close to 100%. […] The perfusions were run for four hours, and 6 mL were sampled at t = 0 from the maternal circulation and from both reservoirs before addition of the compounds and at 2, 30, 60, 130, 190 and 240 minutes after addition of the compounds. The sampled volume was not replaced.
The pH (7.2-7.4), glucose and lactate concentrations (glucose > 6 mM), and O2 tension in the maternal perfusion medium (30-35 kPa), in the fetal perfusion medium (10-15 kPa), and in the fetal venous outflow (15-20 kPa) were measured every 30 minutes using an ABL5 blood gas analyser (Radiometer, Denmark). Adjustments were made using 1 M HCl or 1 M NaOH to adjust pH, glucose solution (2,61 g/L) and increasing or decreasing the rate of 95% N2/5% CO2 gassing in the fetal perfusate or 95% O2/5% CO2 gassing in the maternal perfusate to adjust pO2 after each measurement.
In addition to the perfusion samples, the three PBDE congeners were analysed in umbilical cord blood and in the placental tissue before and after the perfusion. Samples of umbilical cord blood were taken if possible and processed to collect plasma. Subsamples of the placental tissue were taken before perfusion as well as from the cotyledon and the surrounding tissue after perfusion. Prior to placenta perfusions, adsorption tests had been performed: The chambers and tubes were perfused without placental tissue to investigate loss of substance during the perfusion, for instance through adsorption to the perfusion system.

Details of data set [2]: species or system human. To be noted: in vivo. On the procedure: Total lipid content in placental tissue was determined according to Smedes (1999), while enzymatic lipid determination of triglyceride and cholesterol was performed on the plasma samples and total lipid was calculated as described by Covaci et al (2006).
On the set-up of data set [3]: method as in PMID 11999784. To be noted: cited from earlier work.
For data set [4] the following is noted: in vivo; cited from earlier work.
For data set [5], the system named is human placenta. To be noted: cited from earlier work.

Where two headings read alike, the source gives them in different places.

On to `Brc1c(Br)c(Br)c(Oc2c(Br)c(Br)c(Br)c(Br)c2Br)c(Br)c1Br` [BDE-209, decabromo diphenyl ether], for which, in data set [1] (4 h, 1 ng/mL), the “Cotyledon (perfused tissue) level” value is given as 107.8 (64.2-159.5) ng/g lw, the “Surrounding placental tissue level” value is 22.2 (16.3-31.8) ng/g lw, the “concentration in perfused cotyledon relative to background” value came to 20 times and the “concentration in surrounding tissue relative to background” value came to 100 times. In addition, in data set [1] (4 h, 1 ng/mL), the “mass balance: amount unaccounted for (system adsorption)” value is on record as -8%, the “mass balance: fraction of added amount in cotyledon” value came out at 24%, the “mass balance: fraction of added amount in fetal circulation” value turned out to be 0% and the “mass balance: fraction of added amount in maternal circulation” value is listed as 27%. In addition, in data set [1] (4 h, 1 ng/mL), the “mass balance: fraction of added amount in surrounding placental tissue” value is listed as 19% and the “mass balance: fraction of added amount removed by sampling” value stood at 38%. Further, in data set [2], the “Non-perfused placental tissue level” value is recorded as “< LOQ” and the “Umbilical cord plasma level” value is on record as “< LOQ”. Moreover, the logKow in data set [3] is reported as ≥ 10. Moreover, in data set [4], the “median level in placental tissue” value is reported as 1.14 ng/g lw; the “observed blood levels, Denmark” value is reported as ~ 0.014 ng/ml; the “observed blood levels, elsewhere” value is 0.009 to 0.15 ng/mL.

Turning to `Cc1cc(=O)n(-c2ccccc2)n1C` [antipyrine, reference compound], the “FM-ratio at 190 min” value in data set [1] (190 min, 100 µg/mL) is recorded as 1.04. For the same molecule, the “indicative permeability coefficient (IPC)” value in data set [5] was 0.94 h⁻¹.

`c1ccc2c(c1)cc1ccc3cccc4ccc2c1c34` [benzo(a)pyrene]: the “indicative permeability coefficient (IPC)” value in data set [5] (human placenta perfusion) is 0.08 h⁻¹.

`Cn1c(=O)c2c(ncn2C)n(C)c1=O` [caffeine]: the “indicative permeability coefficient (IPC)” value in data set [5] (not told) was 1.03 h⁻¹.

`O=C(O)CNCP(=O)(O)O` [glyphosate]: in data set [5] (perfused in the same human placenta model), the “indicative permeability coefficient (IPC)” value is 0.11 h⁻¹.

The values above are taken from article PMC2908602, “Placental transfer of the polybrominated diphenyl ethers BDE-47, BDE-99 and BDE-209 in a human placenta perfusion system: an experimental study” (Environmental Health, 2010).
